According to patent US20050287070A1, “Ligand-specific opening of a gated-porin channel in the outer membrane of living bacteria” (priority 1997, published 2005):

Target: T1, Escherichia coli ferric enterobactin receptor, FepA (FepAE280C) (Escherichia coli, UniProt P05825, E302C)
T1 construct: expressed in transfected cells; host or cells: E. coli KDF541 (fepA, tonB+) carrying pFepAE280C; also KDF570 (fepA, tonB)
Assay type: cell-based
Experimental: Indicated at (A) are ESR analyses of MTSL-labeled bacteria expressing FepAE280C, KDF541(9) containing pITS449 of pFepAE280C was grown in LB medium and subcultured into T medium plus appropriate nutritional supplements at 1%. After 16 hours, bacteria were harvested and suspended in labeling buffer [50 mM Mops and 60 mM NaCl (PH7.5)]. Spin labels were added (to a final concentration of 20 μM MTSL or 10 μM MAL6) and incubated 2 hours at room temperature with shaking, and the cells were washed twice with reaction buffer containing 0.05% Tween-20 and once with reaction buffer alone. […] For ESR analysis, 10^10 cells were suspended in 100 μl of 0.01 M NaHPO4 (pH 6.9) containing 0.4% glucose. X-band spectra of MTSL-labeled KDF541/pFepAE280C (top), KDF541/pITS449 (fepA^+; center), or KDF541 (fepA; bottom) were recorded on a Bruker EMX spectrometer, operating at 9.8 GHz with a total scan range of 150 G and 100-kHz modulation frequency, at 4° C. in a quartz flat cell. Peaks a and b show the position of strongly and weakly immobilized spin labels, respectively. Indicated at (B) are [^125I]-labeled protein A Western blots with anti-MAL6 sera. MAL6 was coupled to bovine serum albumin (BSA) and ovalbumin (OVA). New Zealand White rabbits were immunized with BSA-MAL6 conjugates [100 μg/week for 1 month (29)], and polyclonal serum was collected in week 5 and assayed for antigen specificity by enzyme-linked immunosorbent assay (30) and Western blots against BSA, BSA-MAL6, OVA, and OVA-MAL6 (lanes 1 through 4, respectively). Lysates (5×10^7 cells) of KDF541, KDF541/pITS449, and KDF541/pFepAE280C, previously labeled with MAL6, as described above, were reacted with the anti-MAL6 polyclonal serum (lanes 5 through 7, respectively). Arrows indicate the positions of (top to bottom) FepAE280C-MAL6, BSA-MAL6, BSA, and OVA-MAL6.
KDF541/pFepAE280C was grown, spin-labeled, and prepared as described in FIG. 1. Signal-averaged X-band spectra (six field sweeps collected over an 8-minute period) of spin-labeled bacteria were recorded at 4° C. as indicated at (A) and again after warming the flat cell to 37° C. [indicated at (B) (31)]. A fresh aliquot of cells from the same labeling reaction was suspended in saturating ferric enterobactin (300 μM) at 4° C. as indicated at (C), the sample was warned to 37° C., and spectra were recorded after 5 minutes, as indicated at (D), and 15 minutes, as indicated at (E) (midpoints of the signal-average measurements). The bacteria were then cooled again to 4° C. for 30 minutes, and spectra were recorded, as indicated at (F). Each of the spectra was double-integrated, as indicated at (G), from 3405 to 3555 G to determine the total number of MTSL spins (O) and from 3443 to 3477 G to determine the spins derived from the strongly immobilized (a) and weakly immobilized (b) peaks (●).
KDF541/pFepAE280C was grown, spin-labeled, and prepared as described in FIG. 1. Singla-averaged X-band spectra (six field sweeps collected over an 8-minute period) of spin-labeled bacteria were recorded in the presence of saturating levels of colicin B (10 μM) at 4° C., as indicated at (A). The sample was warmed to 37° C. and analyzed after 5 minutes, as indicated at (B), 15 minutes, as indicated at (C), and 75 minutes, as indicated at (D) (midpoints of signal average measurement before recooling to 4° C., as indicated at (E). The same strain was grown in minimal media and starved for glucose for 2 hours to deplete its energy stores, spin-labeled, and exposed to colicin B (10 μM) at 37° C. for 30 minutes, as indicated at (F). The spectra were double-integrated, as indicated at (G), as described in FIG. 2.
KDF541/pFepAE280C was grown, spin-labeled, and prepared as described in FIG. 1.

[1] = ferric enterobactin in excess, 37° C.

T1 sequence (P05825 23-746 E302C): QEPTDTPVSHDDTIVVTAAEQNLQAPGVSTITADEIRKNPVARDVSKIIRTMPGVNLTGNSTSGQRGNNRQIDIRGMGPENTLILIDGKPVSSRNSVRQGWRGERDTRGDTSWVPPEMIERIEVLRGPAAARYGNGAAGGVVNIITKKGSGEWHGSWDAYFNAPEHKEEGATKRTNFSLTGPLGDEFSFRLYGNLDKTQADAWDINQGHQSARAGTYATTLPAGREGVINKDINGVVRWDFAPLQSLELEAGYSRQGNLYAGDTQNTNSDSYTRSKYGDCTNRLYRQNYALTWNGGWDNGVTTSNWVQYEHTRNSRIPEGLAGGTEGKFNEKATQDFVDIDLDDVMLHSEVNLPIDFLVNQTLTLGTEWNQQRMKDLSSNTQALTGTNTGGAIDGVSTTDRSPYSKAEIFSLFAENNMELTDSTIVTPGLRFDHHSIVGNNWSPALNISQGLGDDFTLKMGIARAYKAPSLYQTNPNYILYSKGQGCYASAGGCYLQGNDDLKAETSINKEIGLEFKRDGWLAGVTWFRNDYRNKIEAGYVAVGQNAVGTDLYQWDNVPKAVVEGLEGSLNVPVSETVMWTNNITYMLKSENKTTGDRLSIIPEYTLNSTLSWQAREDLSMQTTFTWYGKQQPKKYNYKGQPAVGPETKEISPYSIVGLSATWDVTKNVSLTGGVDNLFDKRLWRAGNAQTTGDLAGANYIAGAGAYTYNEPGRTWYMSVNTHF

Compound | period over which the burst of spin-label motion peaked and receded (ferric enterobactin 300 μM, 37° C., continuous monitoring at 3472 G) [min] | effect on MTSL mobility (weakly immobilized peak at 3472 G) monitored over time (ferric enterobactin 300 μM, KDF541/pFepAE280C, glucose present, warmed from 4° C. to 37° C.) | time for first surge in motion to decay [1] [s] | time for first surge in motion to peak [1] [s] | time over which immobilization of MTSL at residue 280 became more severe (cells with bound colicin warmed to 37° C.) [min] | effect on MTSL mobility during continual incubation at 4° C. (colicin bound, 4° C., over the course of 1 hour) | effect on MTSL mobility in signal-averaged X-band spectra (saturating colicin B (10 μM), 37° C.)
O=C(N[C@H]1COC(=O)[C@@H](NC(=O)c2cccc([O-])c2[O-])COC(=O)[C@@H](NC(=O)c2cccc([O-])c2[O-])COC1=O)c1cccc([O-])c1[O-].[Fe+3] [ferric enterobactin] | 5 | stimulated a burst of motion | 140 | 140 |  |  | 
colicin B |  |  |  |  | 30 | did not take place | progressively eliminated weakly immobilized spins
